Reference: patent US8420630B2 (Boehringer Ingelheim Pharma GmbH & Co. KG, priority 2001, dated 2013)
Values belong to the compound of their own block, whether it stands above or below them.

Experiments:
[1] = target: T1, CDK1/cyclinB1 (Homo sapiens, UniProt P06493); assay: Cyclin B1-CDK1 kinase inhibition test; assay type: biochemical; conditions: CDK1 tests (Example 13); recombinant cyclin B1/CDK1, substrate histone H1; read-out: CDK1/cyclinB1 IC50 value
T1 construct: made in house; host or cells: High Five insect cells (Trichoplusia ni), baculovirus coinfection
Method in brief: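 Baculovirus-expressed CDK1/cyclin B1 phosphorylated histone H1 with ATP mix containing 0.045 mM ATP plus ^33P-ATP for 30 min at 30 °C. Protein was precipitated with TCA and filter-bound radioactivity read by scintillation counting. Olomoucin at 30 and 300 μM final served as internal control.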

[2] = tested on: cell culture; conditions: Ongkeko et al., 1995, J. Cell Sci., 108, 2897; cited from earlier work

T1 sequence (P06493 whole entry): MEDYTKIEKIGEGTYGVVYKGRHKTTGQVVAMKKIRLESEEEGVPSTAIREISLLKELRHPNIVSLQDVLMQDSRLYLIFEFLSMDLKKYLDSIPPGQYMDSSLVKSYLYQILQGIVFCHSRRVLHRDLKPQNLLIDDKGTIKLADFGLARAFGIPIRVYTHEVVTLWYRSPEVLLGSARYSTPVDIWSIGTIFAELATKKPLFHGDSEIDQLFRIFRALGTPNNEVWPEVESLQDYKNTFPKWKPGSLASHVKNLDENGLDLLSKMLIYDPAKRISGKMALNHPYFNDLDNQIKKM
T1 sequence (P14635 whole entry partner): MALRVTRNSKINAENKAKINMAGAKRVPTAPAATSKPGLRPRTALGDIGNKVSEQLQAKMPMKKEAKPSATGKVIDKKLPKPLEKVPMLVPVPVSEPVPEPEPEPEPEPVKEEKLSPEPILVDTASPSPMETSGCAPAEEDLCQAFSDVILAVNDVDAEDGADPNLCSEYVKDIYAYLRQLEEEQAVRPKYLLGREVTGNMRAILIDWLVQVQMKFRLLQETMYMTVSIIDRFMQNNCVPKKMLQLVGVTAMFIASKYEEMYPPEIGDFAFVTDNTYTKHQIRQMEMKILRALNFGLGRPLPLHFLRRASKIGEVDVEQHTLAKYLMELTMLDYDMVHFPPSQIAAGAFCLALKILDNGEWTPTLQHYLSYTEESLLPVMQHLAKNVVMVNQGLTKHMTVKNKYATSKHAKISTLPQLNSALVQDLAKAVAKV

SMILES: Cn1cnc2c(NCc3ccccc3)nc(NCCO)nc21 [olomoucine]
effect with cytotoxic substances in cell culture [2]: synergistic effect

SMILES: CC(=O)NCCNc1nc(Nc2cccc(CN3CCCCC3)c2)ncc1C(F)(F)F [Example 11, N-{2-[2-(3-piperidin-1-ylmethyl-phenylamino)-5-trifluoromethyl-pyrimidin-4-ylamino]-ethyl}-acetamide]
melting point: 93 to 94 °C

SMILES: CC(=O)NCCNc1nc(Nc2ccc(C(=O)O)cc2)ncc1[N+](=O)[O-].Cl
melting point: 171 to 173 °C

SMILES: CC(=O)NCCNc1nc(Nc2ccc(Cl)c(Cl)c2)ncc1[N+](=O)[O-] [Example 1, 2-(3,4-dichlorophenylamino)-4-(2-acetylamino-ethylamino)-5-nitro-pyrimidine]
melting point: 200 to 201 °C

Continued, values first:

IC50 [1]: < 100 nM
melting point: 222 °C
SMILES: CC(=O)NCCNc1nc(Nc2cccc(NC(C)=O)c2)ncc1C(F)(F)F [Example 10(000), N-(2-[2-(3-acetylamino-phenylamino)-5-trifluoromethyl-pyrimidin-4-ylamino]-ethyl)-acetamide]

melting point: 282 °C
SMILES: CC(=O)NCCNc1nc(Nc2cccc(C(=O)O)c2)ncc1C(F)(F)F [Example 9, 3-[4-(2-acetylamino-ethylamino)-5-trifluoromethyl-pyrimidin-2-ylamino]-benzoic acid]

melting point: 183 °C
SMILES: CNC(=O)c1ccc(Nc2ncc(C(F)(F)F)c(NCCNC(C)=O)n2)cc1 [Example 8, 4-[4-(2-acetylamino-ethylamino)-5-trifluoromethyl-pyrimidin-2-ylamino]-N-methyl-benzamide]
